8 compounds from article PMC10356948, “Crystal structures of herbicide-detoxifying esterase reveal a lid loop affecting substrate binding and activity” (Nature Communications, 2023) can be followed below.

Experiment [1] has as its target T1, SulE (Hansschlegelia zhihuaiae, UniProt G9I933).
T1 construct: pET-29a(+), E. coli BL21(DE3), C-terminal His6 tag; full-length precursor 398 aa, predicted signal peptide cleavage Ala37/Glu38; homodimer, lid loop of one subunit covers active site of the other; residues 12-360 (mature count) seen in crystal
Description: X-ray crystal structure (co-crystal with CE, hydrolysed in crystallisation). The class given is binding. As to conditions: 5 mM CE, 4 °C, pH 5.5; active site.

Experiment [2] deals with T2, SulE (Hansschlegelia zhihuaiae, UniProt G9I933, P80R).
T2 construct: pET-29a(+), E. coli BL21(DE3), C-terminal His6 tag; full-length precursor 398 aa, predicted signal peptide cleavage Ala37/Glu38; homodimer, lid loop of one subunit covers active site of the other; residues 12-360 (mature count) seen in crystal
T2 sequence (G9I933 entry or part of it P80R): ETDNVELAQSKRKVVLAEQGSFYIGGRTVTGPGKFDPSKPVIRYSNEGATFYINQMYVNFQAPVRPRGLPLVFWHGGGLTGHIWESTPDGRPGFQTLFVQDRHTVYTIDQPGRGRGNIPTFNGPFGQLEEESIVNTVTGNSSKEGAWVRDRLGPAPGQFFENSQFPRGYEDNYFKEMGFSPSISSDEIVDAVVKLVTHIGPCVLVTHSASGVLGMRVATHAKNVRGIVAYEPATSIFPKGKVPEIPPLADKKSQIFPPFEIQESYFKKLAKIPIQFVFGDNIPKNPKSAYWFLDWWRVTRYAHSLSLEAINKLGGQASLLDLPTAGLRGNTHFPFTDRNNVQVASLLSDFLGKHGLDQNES
Description: SPR (Biacore T200, protein amine-coupled to CM7 chip), steady-state affinity. The class given is binding.

Experiment [3] has as its target T1, SulE. The description is as above. The class given is binding.
Experiment [4] deals with T3, SulE (Hansschlegelia zhihuaiae, UniProt G9I933, P80R/S245A/H369A).
T3 construct: pET-29a(+), E. coli BL21(DE3), C-terminal His6 tag; full-length precursor 398 aa, predicted signal peptide cleavage Ala37/Glu38; homodimer, lid loop of one subunit covers active site of the other; residues 12-360 (mature count) seen in crystal
T3 sequence (G9I933 entry or part of it P80R/S245A/H369A): as the sequence (G9I933 entry or part of it P80R) above, with S208A, H332A counted along it
Description: X-ray crystal structure (co-crystal). The class given is binding. As to conditions: 5 mM substrate, 4 °C, pH 7.0; active site, catalytically dead mutant.

The target in experiment [5] is T4, SulE (Hansschlegelia zhihuaiae, UniProt G9I933, S245A/H369A).
T4 construct: pET-29a(+), E. coli BL21(DE3), C-terminal His6 tag; full-length precursor 398 aa, predicted signal peptide cleavage Ala37/Glu38; homodimer, lid loop of one subunit covers active site of the other; residues 12-360 (mature count) seen in crystal
T4 sequence (G9I933 entry or part of it S245A/H369A): as the sequence (G9I933 entry or part of it P80R) above, with R43P, S208A, H332A counted along it
Description: X-ray crystal structure (co-crystal). The class given is binding. Conditions: 5 mM substrate, 4 °C, pH 7.0; active site, catalytically dead mutant.

Experiment [6] addresses SulE (wild-type esterase from Hansschlegelia zhihuaiae S113) (Hansschlegelia zhihuaiae S113). Description: crystal structure; X-ray crystal structures of purified SulE and mutants; apo-SulE at 1.46 Å, space group P21, two monomers in the asymmetric unit; sitting-drop vapor diffusion at 4 °C; apo-SulE in 0.1 M citric acid-trisodium citrate pH 5.5, 20% PEG 4000; cocrystals and P44R mutants in 0.1 M ammonium tartrate dibasic pH 7.0, 12-15% PEG 3350, with 5 mM substrate.

T1 sequence (G9I933 entry or part of it): as the sequence (G9I933 entry or part of it P80R) above, with R43P counted along it

Regarding `COc1cc(Cl)nc(NC(=O)NS(=O)(=O)c2ccccc2C(=O)O)n1` [CA, chlorimuron acid], in experiment [1], the “X-ray crystal structure (co-crystal with CE, hydrolysed in crystallisation)” value is “crystal structures of wild-type SulE in complex with CA”.

In general, Kd refers to a measure of binding affinity in units of concentration. Turning to `CCOC(=O)c1ccccc1S(=O)(=O)NC(=O)Nc1nc(Cl)cc(OC)n1` [CE, chlorimuron-ethyl], the Kd in experiment [2] was 1.36 µM; in experiment [3], 5.29 µM.

As to `COC(=O)c1sccc1S(=O)(=O)NC(=O)Nc1nc(C)nc(OC)n1` [TM, thifensulfuron-methyl], the Kd was 7.25 µM in experiment [2] and 8.85 µM in experiment [3].

Consider `COC(=O)c1ccccc1S(=O)(=O)NC(=O)Nc1nc(C)nc(OC)n1` [MM, metsulfuron-methyl], for which the Kd in experiment [2] amounted to 2.89 µM; in experiment [3], 5.58 µM. Moreover, the “X-ray crystal structure (co-crystal)” value in experiment [4] was “the triple mutant P44R/S209A/H333A in complex with MM, CE, and TM”; in experiment [5], “mutant S209A/H333A in complex with MM, SM, TM, TrM, EM, BM, and CE”.

Turning to `COC(=O)c1ccccc1CS(=O)(=O)NC(=O)Nc1nc(OC)cc(OC)n1` [BM, bensulfuron-methyl], the figures for the Kd in experiment [2] and in experiment [3] were 5.75 µM and 6.34 µM, respectively.

Turning to `COC(=O)c1ccccc1S(=O)(=O)NC(=O)N(C)c1nc(C)nc(OC)n1` [TrM, tribenuron-methyl], the “X-ray crystal structure (co-crystal)” value in experiment [5] is “mutant S209A/H333A in complex with MM, SM, TM, TrM, EM, BM, and CE”.

For the compound `CCOc1nc(NC)nc(NC(=O)NS(=O)(=O)c2ccccc2C(=O)OC)n1` [EM, ethametsulfuron-methyl], the “X-ray crystal structure (co-crystal)” value in experiment [5] is “mutant S209A/H333A in complex with MM, SM, TM, TrM, EM, BM, and CE”.

As a reminder, the stoichiometry N is the number of molecules, sites or subunits per partner or assembly. Consider “SulE (wild-type esterase from Hansschlegelia zhihuaiae S113) (enzyme)”, for which the stoichiometry N in experiment [6] came to 2.
